In US12398097B2, “WDR5-MYC inhibitors” (Vanderbilt University, priority 2019, dated 2025) one finds Ki data, which are given here for 34 compounds.

pKi: −log10 of the molar value.

In the test the target is WDR5 (Homo sapiens, UniProt P61964). As to the kind of experiment: Competition-based fluorescence polarization anisotropy assay. Conditions: binding to WDR5; displacement of FITC-labeled small molecule probe (analogous to Example J2 or HCH-25) or peptide probe FITC-AHx-SEEEIDVVSV; pH 6.0; Ki converted from IC50. On the procedure:
Compounds of the present invention were assessed for their ability to bind to WDr5 using a competition-based fluorescence polarization anisotropy assay, similar to the method previously described. […] Fluorescence polarization measurements were performed in 384-well plates (Greiner Bio One) using a Cytation 3 plate reader (BioTek). Fluorescein isothiocyanate (FITC)-labeled peptide probe ([…]) was purchased from GenScript USA Inc and used without further purification. […] The assay buffer contained 200 mM phosphate, 300 mM NaCl, and 0.5 mM TCEP and 0.1% Chaps at pH 6.0. […] This was converted into a binding dissociation constant (Ki value) according to the formula: […] Data shown in the table below represents a K; determined from this method for each Example, using either a fluorescently labeled small molecule probe analogous to Example J2 or Example HCH-25, or the peptide probe described above, in the assay.
In general terms: Fluorescence polarisation rises when a labelled molecule tumbles more slowly, as on binding a larger partner.
Take `COc1ccc(Br)cc1S(=O)(=O)Nc1cc(C2(C#N)CCC2)cc(C(=O)O)c1O` [Example J205, 3-((5-Bromo-2-methoxyphenyl)sulfonamido)-5-(1-cyanocyclobutyl)-2-hydroxybenzoic acid]: the pKi was 7.30.

`O=S(=O)(Nc1cc(C2CC2)ccc1O)c1cc(Br)ccc1O` [JDM-10-108A, 5-Bromo-N-(5-cyclopropyl-2-hydroxyphenyl)-2-hydroxybenzenesulfonamide] gave a pKi of 6.09. For `O=C(NCCN1CCOCC1)c1cc(Cl)cc(NS(=O)(=O)c2cc(Br)ccc2O)c1O` [Example J19, 3-((5-Bromo-2-hydroxyphenyl)sulfonamido)-5-chloro-2-hydroxy-N-(2-morpholinoethyl)benzamide] the value was 5.93.

In turn, `O=[N+]([O-])c1cc(Cl)cc(NS(=O)(=O)c2cc(Br)cc(OC(F)(F)F)c2O)c1O` [NE9, 5-Bromo-N-(5-chloro-2-hydroxy-3-nitrophenyl)-2-hydroxy-3-(trifluoromethoxy)benzenesulfonamide] gave a pKi of 6.41. The compound `O=C(O)c1cc(Cl)cc(NS(=O)(=O)c2cc(Br)c(F)cc2O)c1O` [Example J9, 3-((5-Bromo-4-fluoro-2-hydroxyphenyl)sulfonamido)-5-chloro-2-hydroxybenzoic acid] gave a pKi of 5.57. Consider `O=S(=O)(Nc1cc(C2CC2)cc(S(=O)(=O)C2CCCO2)c1)c1cc(Br)cc(Cl)c1O` (stereo not shown) [Example S16, 5-Bromo-3-chloro-N-(3-cyclopropyl-5-((tetrahydrofuran-2-yl)sulfonyl)phenyl)-2-hydroxybenzenesulfonamide], for which the pKi is 6.70. For `O=C(c1cc(OC(F)(F)F)cc(NS(=O)(=O)c2cc(Br)ccc2O)c1O)N1CCC[C@H]1CO` [Example J169, (S)-5-Bromo-2-hydroxy-N-(2-hydroxy-3-(2-(hydroxymethyl)pyrrolidine-1-carbonyl)-5-(trifluoromethoxy)phenyl)benzenesulfonamide] the value was 5.77; for `O=C(NCCN1CCOCC1)c1c(O)c(NS(=O)(=O)c2cc(Br)cc(Cl)c2O)cc(C2CC2)c1F` [Example J148, 3-((5-Bromo-3-chloro-2-hydroxyphenyl)sulfonamido)-5-cyclopropyl-6-fluoro-2-hydroxy-N-(2-morpholinoethyl)benzamide], 6.22.

In turn, `O=C(NCCN1CCOCC1)c1cc(C2CC2)cc(NS(=O)(=O)c2cc(Br)cc(Cl)c2O)c1F` [Example J158, 3-((5-Bromo-3-chloro-2-hydroxyphenyl)sulfonamido)-5-cyclopropyl-2-fluoro-N-(2-morpholinoethyl)benzamide] had a pKi of 6.49. Next, `COc1cc(F)c(Br)cc1S(=O)(=O)Nc1cc(C2CC2)cc(C(=O)O)c1O` [Example J72, 3-((5-Bromo-4-fluoro-2-methoxyphenyl)sulfonamido)-5-cyclopropyl-2-hydroxybenzoic acid]: 5.95. For `N#CC1(c2ccc(O)c(NS(=O)(=O)c3cc(Br)ccc3O)c2)CC1` [JDM-10-107, 5-Bromo-N-(5-(1-cyanocyclopropyl)-2-hydroxyphenyl)-2-hydroxybenzenesulfonamide] the value was 6.07; for `CCN(CC)CCS(=O)(=O)c1cc(Cl)cc(NS(=O)(=O)c2cc(Br)ccc2OC)c1` [Example S46, 5-Bromo-N-(3-chloro-5-((2-(diethylamino)ethyl)sulfonyl)phenyl)-2-methoxybenzenesulfonamide], 4.69; for `O=C(c1cc(C2CC2)cc(NS(=O)(=O)c2cc(Br)ccc2O)c1O)N1CCOCC1` [Example J85, 5-Bromo-N-(5-cyclopropyl-2-hydroxy-3-(morpholine-4-carbonyl)phenyl)-2-hydroxybenzenesulfonamide], 5.84.

As for `COC[C@H]1CCCN1c1ccc(Br)cc1S(=O)(=O)Nc1cc(C2CC2)cc(C(=O)O)c1O` [Example J78, (R)-3-((5-Bromo-2-(2-(methoxymethyl)pyrrolidin-1-yl)phenyl)sulfonamido)-5-cyclopropyl-2-hydroxybenzoic acid], the pKi is 5.40. For `N#CC1(c2ccc(O)c(NS(=O)(=O)c3cc(Br)ccc3O)c2)CCC1` [JDM-06-030B, 5-Bromo-N-(5-(1-cyanocyclobutyl)-2-hydroxyphenyl)-2-hydroxybenzenesulfonamide] the value was 6.54.

The compound `CNC(=O)c1cc(S(F)(F)(F)(F)F)cc(NS(=O)(=O)c2cc(Br)cc3cccnc23)c1O` [Example S67] had a pKi of 7.05.

Compound `COCCNC(=O)c1cc(NS(=O)(=O)c2cc(Br)ccc2O)cc(C2CC2)c1F` [Example J136, 5-((5-Bromo-2-hydroxyphenyl)sulfonamido)-3-cyclopropyl-2-fluoro-N-(2-methoxyethyl)benzamide] had a pKi of 5.95. For `O=C(O)c1cc(-c2cccs2)cc(NS(=O)(=O)c2cc(Br)ccc2O)c1O` [Example J196, 3-((5-bromo-2-hydroxyphenyl)sulfonamido)-2-hydroxy-5-(thiophen-2-yl)benzoic acid] the value was 5.97; for `O=S(=O)(Nc1cc(C2(C(F)(F)F)CC2)ccc1O)c1cc(Br)ccc1O` [JDM-09-131, 5-Bromo-2-hydroxy-N-(2-hydroxy-5-(1-(trifluoromethyl)cyclopropyl)phenyl)benzenesulfonamide], 6.26; for `O=C(NC1COC1)c1cc(Cl)cc(NS(=O)(=O)c2cc(Br)ccc2O)c1O` [Example J21, 3-((5-Bromo-2-hydroxyphenyl)sulfonamido)-5-chloro-2-hydroxy-N-(oxetan-3-yl)benzamide], 6.24. For `O=C(NCc1ccco1)c1cc(Cl)cc(NS(=O)(=O)c2cc(Br)ccc2O)c1O` [Example J34, 3-((5-Bromo-2-hydroxyphenyl)sulfonamido)-5-chloro-N-(furan-2-ylmethyl)-2-hydroxybenzamide] the value was 6.49; for `CC(C)N(CCSc1cc(Cl)cc(NS(=O)(=O)c2cc(Br)cc(Cl)c2O)c1)C(C)C` [Example S36, 5-Bromo-3-chloro-N-(3-chloro-5-((2-(diisopropylamino)ethyl)thio)phenyl)-2-hydroxybenzenesulfonamide], 6.11. For `O=C(NCC(F)F)c1cc(Cl)cc(NS(=O)(=O)c2cc(Br)ccc2O)c1O` [Example J39, 3-((5-Bromo-2-hydroxyphenyl)sulfonamido)-5-chloro-N-(2,2-difluoroethyl)-2-hydroxybenzamide] the value was 6.10; for `COC1CCN(C(=O)c2cc(Cl)cc(NS(=O)(=O)c3cc(Br)ccc3O)c2O)C1` (stereo not shown) [Example J24, 5-Bromo-N-(5-chloro-2-hydroxy-3-(3-methoxypyrrolidine-1-carbonyl)phenyl)-2-hydroxybenzenesulfonamide], 5.26. `CCc1cc(Br)cc(S(=O)(=O)Nc2cc(OC(F)(F)F)cc(C(=O)O)c2O)c1O` [HCH-14, 3-((5-Bromo-3-ethyl-2-hydroxyphenyl)sulfonamido)-2-hydroxy-5-(trifluoromethoxy)benzoic acid] showed a pKi of 6.89. For `NC(=O)c1cc(C2CC2)cc(NS(=O)(=O)c2cc(Br)cc(Cl)c2O)c1O` [Example J94, 3-((5-Bromo-3-chloro-2-hydroxyphenyl)sulfonamido)-5-cyclopropyl-2-hydroxybenzamide] the value was 6.40; for `CC(NC(=O)c1cc(OC(F)(F)F)cc(NS(=O)(=O)c2cc(Br)cc(Cl)c2O)c1O)C(N)=O` (stereo not shown) [HCH-57, N-(1-Amino-1-oxopropan-2-yl)-3-((5-bromo-3-chloro-2-hydroxyphenyl)sulfonamido)-2-hydroxy-5-(trifluoromethoxy)benzamide], 6.82; for `CNC(=O)c1cc(C2(C#N)CCCCC2)cc(NS(=O)(=O)c2cc(Br)cc(Cl)c2O)c1O` [Example J236, 3-((5-Bromo-3-chloro-2-hydroxyphenyl)sulfonamido)-5-(1-cyanocyclohexyl)-2-hydroxy-N-methylbenzamide], 6.62. For `CS(=O)(=O)c1cc(NS(=O)(=O)c2cc(Br)ccc2O)cc(OC(F)(F)F)c1` [Example S11, 5-Bromo-2-hydroxy-N-(3-(methylsulfonyl)-5-(trifluoromethoxy)phenyl)benzenesulfonamide] the value was 6.09; for `CC(C)[C@@H](C)Nc1ccc(Br)cc1S(=O)(=O)Nc1cc(C2CC2)cc(C(=O)O)c1O` [Example J75, (R)-3-((5-Bromo-2-((3-methylbutan-2-yl)amino)phenyl)sulfonamido)-5-cyclopropyl-2-hydroxybenzoic acid], 5.29; for `CS(=O)(=O)c1cc(NS(=O)(=O)c2cc(Br)ccc2O)cc(S(F)(F)(F)(F)F)c1` [Example S13, 5-Bromo-2-hydroxy-N-(3-(methylsulfonyl)-5-(pentafluoro-λ^6-sulfaneyl)phenyl)benzenesulfonamide], 6.38. Next, `CNC(=O)c1cc(C2(C#N)CCC2)cc(NS(=O)(=O)c2cc(Br)cc3cccnc23)c1O` [Example J217, 3-((6-Bromoquinoline)-8-sulfonamido)-5-(1-cyanocyclobutyl)-2-hydroxy-N-methylbenzamide]: 6.38. On to `CNC(=O)c1c(O)c(NS(=O)(=O)c2cc(Br)cc(Cl)c2O)cc(C2CC2)c1F` [Example J146, 3-((5-Bromo-3-chloro-2-hydroxyphenyl)sulfonamido)-5-cyclopropyl-6-fluoro-2-hydroxy-N-methylbenzamide], for which the pKi is 7.40. `O=C(NCCO)c1c(O)c(NS(=O)(=O)c2cc(Br)ccc2O)cc(C2CC2)c1F` [Example J126, 3-((5-Bromo-2-hydroxyphenyl)sulfonamido)-5-cyclopropyl-6-fluoro-2-hydroxy-N-(2-hydroxyethyl)benzamide] showed a pKi of 6.11.

One may read the pKi as −log10 of the Ki, conventionally taken in molar units. Lower therefore signals a high Ki.
